Assays:
Format in all cases: physicochemical
[1] = Refractive index (RX-7000 α, ATAGO)
Description: The refractive index of the oligomers was measured using a RX-7000 α from AT AGO at a temperature of 25°C.

[2] = Epoxy Equivalent Weight (EEW), ASTM D1763-1981
Description: The EEW was measured in accordance with ASTM D1763-1981.

[3] = Viscosity of the oligomers (Brookfield RVDV-II+ Pro, #28 spindle); conditions: 20 rpm
Description: The viscosity of the oligomers was measured using a Brookfield RVDV-II+ Pro instrument at a temperature of 60°C using a #28 spindle and a rotational speed of 20 rpm. Moreover, the viscosity of the oligomers was measured with a Brookfield RVDV-II+ Pro instrument at a temperature of 25°C using a #28 spindle and a rotational speed of 10 rpm.

[4] = Storage stability (thermal test, viscosity before/after 48 hours at 65°C, alone or mixed with ADH)
Description: The storage stability tests were performed by placing the oligomer to be tested, alone or mixed with ADH (as a curing agent), at 65°C for 48 hours (thermal test), and measuring their viscosity (cps@60C).

[5] = Mechanical performance of cured compositions (tensile strength, modulus, elongation at break, ASTM D638)
Description: These mechanical properties were measured in accordance with ASTM D638.
The mechanical performance tests were performed on compositions comprising the oligomer to be tested mixed with SR506, photoinitiators and/or curing agents, as detailed in Tables 4, 5 and 6 below.
Tests UV + Thermal cure: 80 wt.% of oligomers were mixed with 20 wt. % of SR506. To this mixture were added 3 wt.% of TPO and 1 wt.% of 2E4MZ (based on the total weight of oligomers + SR506).
Tests UV cure: 80 wt.% of oligomers were mixed with 20 wt. % of SR506. To this mixture was added 3 wt.% of TPO (based on the total weight of oligomers + SR506).
Tests Thermal cure: 80 wt.% of oligomers were mixed with 20 wt.% of SR506. To this mixture was added 1 wt.% of 2E4MZ (based on the total weight of oligomers + SR506).

[6] = Thermal Cure, 80 wt.% oligomer + 20 wt.% SR506, then 1 wt.% 2E4MZ
[7] = UV + Thermal Cure, 80 wt.% oligomer + 20 wt.% SR506, then 3 wt.% TPO + 1 wt.% 2E4MZ
[8] = UV Cure, 80 wt.% oligomer + 20 wt.% SR506, then 3 wt.% TPO

Refractive Index (25°C) [1]: 1.5633 | EEW ([2]; Table 2): 1020 g/ep | EEW ([2]; synthesis text): 1020 g/eq | Viscosity (60°C) [3]: 2390 mPa.s | Viscosity (60°C) ([3]; listed as Comparative oligomer): around 2390 mPa.s | viscosity change after storage ([4]; 65°C for 48h, not mixed with ADH): no significant viscosity change | Viscosity (cps@60C) After storage 48h, 65°C ([4]; after storage 48h at 65°C, measured at 60C): 2,450 cps | Viscosity (cps@60C) Initial ([4]; initial, measured at 60C): 2,390 cps | state of composition after storage ([4]; mixed with 20 wt.% ADH, 48h at 65°C): becomes gelled | Elongation at break (%) [5, 6]: 2.095% | Tensile modulus [5, 6]: 2,037 | Tensile strength (Mpa) [5, 6]: 43.33 Mpa | Elongation at break (%) [5, 7]: 1.86% | Tensile modulus [5, 7]: 4027 | Tensile strength (Mpa) [5, 7]: 73.39 Mpa | Elongation at break (%) [5, 8]: 2.32% | Tensile modulus [5, 8]: 2722 | Tensile strength (Mpa) [5, 8]: 62.9 Mpa
Structure (SMILES): C=CC(=O)OCC(O)COc1ccc(C(C)(C)c2ccc(OCC3CO3)cc2)cc1 (stereo not drawn) [Reference]

Reference: patent publication EP4491649A1, “DUAL CURABLE OLIGOMERS” (ARKEMA FRANCE, priority 2023, dated 2025)
